Measurements published in patent US8883809B2, “Isoxazole/isoxazoline/combretastatin linked dihydroquinazolinone hybrids as potential anticancer agents and process for the preparation thereof” (Council of Scientific & Industrial Research, priority 2008, dated 2014).
Read-outs that look alike come from different tables or passages of the source.

Tests used:
[1] = tested on: Breast cancer cell lines; experiment: NCI in vitro cytotoxicity, panel average
[2] = tested on: SK-MEL-28; experiment: NCI in vitro cytotoxicity, SRB assay; settings: Homo sapiens
[3] = tested on: Leukemia cell lines; experiment: NCI in vitro cytotoxicity, panel average
[4] = tested on: HCT-116; experiment: NCI in vitro cytotoxicity, SRB assay; settings: Homo sapiens
[5] = tested on: DU-145; experiment: NCI in vitro cytotoxicity, SRB assay; settings: Homo sapiens
[6] = tested on: CNS cancer cell lines; experiment: NCI in vitro cytotoxicity, panel average; settings: average of the panel's cell lines
[7] = tested on: CCRF-CEM; experiment: NCI in vitro cytotoxicity, SRB assay; settings: Homo sapiens
[8] = tested on: Melanoma cell lines; experiment: NCI in vitro cytotoxicity, panel average
[9] = tested on: SNB-75; experiment: NCI in vitro cytotoxicity, SRB assay; settings: Homo sapiens
[10] = tested on: SW-620; experiment: NCI in vitro cytotoxicity, SRB assay; settings: Homo sapiens
[11] = tested on: MDA-MB-468; experiment: NCI in vitro cytotoxicity, SRB assay; settings: Homo sapiens
[12] = tested on: NCI-H460; experiment: NCI in vitro cytotoxicity, SRB assay; settings: Homo sapiens
Source text: (§1) The results are expressed as percent of cell growth determined relative to that of untreated control cells (Table 2).

[13] = tested on: HS 578T; experiment: NCI in vitro cytotoxicity, SRB assay; settings: Homo sapiens
[14] = tested on: HCC-2998; experiment: NCI in vitro cytotoxicity, SRB assay; settings: Homo sapiens
Source text: as §1

[15] = tested on: RPMI-8226; experiment: NCI in vitro cytotoxicity, SRB assay; settings: Homo sapiens
[16] = tested on: T-47D; experiment: NCI in vitro cytotoxicity, SRB assay; settings: Homo sapiens, T47D
[17] = tested on: OVCAR-5; experiment: NCI in vitro cytotoxicity, SRB assay; settings: Homo sapiens
[18] = tested on: HL-60(TB); experiment: NCI in vitro cytotoxicity, SRB assay; assay type: cell-based; settings: Homo sapiens; Leukemia HL-60(TB)
[19] = tested on: A498; experiment: NCI in vitro cytotoxicity, SRB assay; settings: Homo sapiens
[20] = tested on: forty nine human tumour cell lines; experiment: NCI in vitro cytotoxicity screen, SRB assay, 48 h continuous exposure
[21] = tested on: LOX IMVI; experiment: NCI in vitro cytotoxicity, SRB assay; settings: Homo sapiens
[22] = tested on: NCI-H522; experiment: NCI in vitro cytotoxicity, SRB assay; settings: Homo sapiens
Source text: as §1

[23] = tested on: Ovarian cancer cell lines; experiment: NCI in vitro cytotoxicity, panel average
[24] = tested on: UO-31; experiment: NCI in vitro cytotoxicity, SRB assay; settings: Homo sapiens
[25] = tested on: Colon cancer cell lines; experiment: NCI in vitro cytotoxicity, panel average
[26] = tested on: SF-539; experiment: NCI in vitro cytotoxicity, SRB assay; settings: Homo sapiens
[27] = tested on: MDA-MB-231/ATCC; experiment: NCI in vitro cytotoxicity, SRB assay; settings: Homo sapiens
[28] = tested on: NCI-H23; experiment: NCI in vitro cytotoxicity, SRB assay; settings: Homo sapiens
Source text: as §1

[29] = tested on: PC-3; experiment: NCI in vitro cytotoxicity, SRB assay; settings: Homo sapiens
[30] = tested on: Prostate cancer cell lines; experiment: NCI in vitro cytotoxicity, panel average
[31] = tested on: UACC-62; experiment: NCI in vitro cytotoxicity, SRB assay; settings: Homo sapiens
[32] = tested on: SK-MEL-5; experiment: NCI in vitro cytotoxicity, SRB assay; settings: Homo sapiens
[33] = tested on: Renal cancer cell lines; experiment: NCI in vitro cytotoxicity, panel average
[34] = tested on: EKVX; experiment: NCI in vitro cytotoxicity, SRB assay; settings: Homo sapiens
[35] = tested on: MOLT-4; experiment: NCI in vitro cytotoxicity, SRB assay; settings: Homo sapiens
[36] = tested on: M14; experiment: NCI in vitro cytotoxicity, SRB assay; settings: Homo sapiens
[37] = tested on: SN12C; experiment: NCI in vitro cytotoxicity, SRB assay; settings: Homo sapiens
[38] = tested on: SNB-19; experiment: NCI in vitro cytotoxicity, SRB assay; settings: Homo sapiens
[39] = tested on: OVCAR-3; experiment: NCI in vitro cytotoxicity, SRB assay; settings: Homo sapiens
[40] = tested on: SF-268; experiment: NCI in vitro cytotoxicity, SRB assay; settings: Homo sapiens
[41] = tested on: IGROV1; experiment: NCI in vitro cytotoxicity, SRB assay; settings: Homo sapiens, IGROV-1
[42] = tested on: 786-0; experiment: NCI in vitro cytotoxicity, SRB assay; settings: Homo sapiens
[43] = tested on: OVCAR-4; experiment: NCI in vitro cytotoxicity, SRB assay; settings: Homo sapiens
[44] = tested on: Non-small-cell lung cancer cell lines; experiment: NCI in vitro cytotoxicity, panel average
[45] = tested on: KM12; experiment: NCI in vitro cytotoxicity, SRB assay; settings: Homo sapiens
[46] = tested on: MCF7; experiment: NCI in vitro cytotoxicity, SRB assay; settings: Homo sapiens
[47] = tested on: ACHN; experiment: NCI in vitro cytotoxicity, SRB assay; settings: Homo sapiens
[48] = tested on: SK-OV-3; experiment: NCI in vitro cytotoxicity, SRB assay; settings: Homo sapiens
[49] = tested on: CAKI-1; experiment: NCI in vitro cytotoxicity, SRB assay; settings: Homo sapiens
[50] = tested on: NCI/ADRRES; experiment: NCI in vitro cytotoxicity, SRB assay; settings: Homo sapiens, NCI/ADR-RES
[51] = tested on: A549/ATCC; experiment: NCI in vitro cytotoxicity, SRB assay; settings: Homo sapiens
[52] = tested on: MDA-MB-435; experiment: NCI in vitro cytotoxicity, SRB assay; settings: Homo sapiens
[53] = tested on: K-562; experiment: NCI in vitro cytotoxicity, SRB assay; settings: Homo sapiens, K562
[54] = tested on: HCT-15; experiment: NCI in vitro cytotoxicity, SRB assay; settings: Homo sapiens
[55] = tested on: OVCAR-8; experiment: NCI in vitro cytotoxicity, SRB assay; settings: Homo sapiens
[56] = tested on: U251; experiment: NCI in vitro cytotoxicity, SRB assay; settings: Homo sapiens, U-251
[57] = tested on: HOP-92; experiment: NCI in vitro cytotoxicity, SRB assay; settings: Homo sapiens
Source text: as §1

[58] = tested on: SF-295; experiment: NCI in vitro cytotoxicity, SRB assay; settings: Homo sapiens
[59] = tested on: UACC-257; experiment: NCI in vitro cytotoxicity, SRB assay; settings: Homo sapiens
[60] = Homo sapiens, read-out: Log10 LC50 (converted)

COc1cc(C2NC(=O)c3ccccc3N2)ccc1OCCCCCOc1c(OC)cc(C2=NOC(c3cc(OC)c(OC)c(OC)c3)C2)cc1OC (centres unmarked) [Compound 7d, 2-[4-(5-{2,6-Dimethoxy-4-[5-(3,4,5-trimethoxy-phenyl)-4,5-dihydro-isoxazol-3-yl]-phenoxy}-pentyloxy)-3-methoxy-phenyl]-2,3-dihydro-1H-quinazolin-4-one]
Log10 GI50 ([1]; Breast, average of the panel's cell lines): −5.82 mol/L
CC50 [1, 60]: ≥ 100 µM
GI50 [2]: 3.24 µM
CC50 [3, 60]: 70.8 µM
Log10 GI50 ([3]; Leukemia, average of the panel's cell lines): −6.17 mol/L
GI50 [4]: 0.26 µM
GI50 [5]: 22.4 µM
Log10 GI50 [6]: −4.66 mol/L
GI50 [7]: 0.62 µM
CC50 [8, 60]: ≥ 100 µM
Log10 GI50 ([8]; Melanoma, average of the panel's cell lines): −5.69 mol/L
GI50 [9]: 34.2 µM
GI50 [10]: 21 µM
GI50 [11]: 0.08 µM
GI50 [12]: 15.1 µM
GI50 [13]: 15 µM
GI50 [14]: 0.06 µM
GI50 [15]: 0.06 µM
GI50 [16]: 0.3 µM
GI50 [17]: 31.7 µM
GI50 [18]: 12.2 µM
GI50 [19]: 19.3 µM
GI50 ([20]; Homo sapiens, read-out: GI50 value): < 40 µM
GI50 ([20]; Homo sapiens, read-out: Log10 GI50 mean graph midpoint (MG_MID) (converted)): 5.25 µM
CC50 ([20]; Homo sapiens, read-out: Log10 LC50 mean graph midpoint (MG_MID) (converted)): 95.5 µM
in vitro cytotoxicity (in words) ([20]; cancer cell lines): significant cytotoxicity
Log10 TGI mean graph midpoint (MG_MID) ([20]; human tumour cell lines): −4.18
GI50 [21]: 19.5 µM
GI50 [22]: 27.4 µM
CC50 [23, 60]: ≥ 100 µM
Log10 GI50 ([23]; Ovarian, average of the panel's cell lines): −5.20 mol/L
GI50 [24]: 21.4 µM
Log10 GI50 ([25]; Colon, average of the panel's cell lines): −5.17 mol/L
CC50 [25, 60]: ≥ 100 µM
GI50 [26]: 21.2 µM
GI50 [27]: 14.7 µM
GI50 [28]: 0.38 µM
GI50 [29]: 0.74 µM
CC50 [30, 60]: ≥ 100 µM
Log10 GI50 ([30]; Prostate, average of the panel's cell lines): −5.39 mol/L
GI50 [31]: 0.99 µM
GI50 [32]: 0.18 µM
CC50 [33, 60]: ≥ 100 µM
Log10 GI50 ([33]; Renal, average of the panel's cell lines): −4.72 mol/L
GI50 [34]: 0.36 µM
GI50 [35]: 0.68 µM
GI50 [36]: 19.8 µM
GI50 [37]: 39.1 µM
GI50 [38]: 16.6 µM
GI50 [39]: 12.4 µM
GI50 [40]: 20.2 µM
GI50 [41]: 0.32 µM
GI50 [42]: 31.8 µM
GI50 [43]: 0.49 µM
CC50 [44, 60]: ≥ 100 µM
Log10 GI50 ([44]; Non-small-cell lung, average of the panel's cell lines): −4.97 mol/L
GI50 [45]: 10.4 µM
GI50 [46]: 0.45 µM
GI50 [47]: 0.95 µM
GI50 [48]: 38.5 µM
GI50 [49]: 18 µM
GI50 [50]: 10.6 µM
GI50 [51]: 15.7 µM
GI50 [52]: 0.6 µM
GI50 [53]: 0.37 µM
GI50 [54]: 15.9 µM
GI50 [55]: 25.7 µM
GI50 [56]: 25.2 µM
GI50 [57]: 15.8 µM
GI50 [58]: 16.4 µM
GI50 [59]: 0.29 µM
